According to patent publication US12673921B2, “Substituted fluorine-containing imidazole salt compound, preparation method therefor, pharmaceutical composition thereof and use thereof” (XIAMEN VIVOHEALTHS TECHNOLOGY CO., LTD., priority 2019, dated 2026):

test system: AMPK; test: AMPK activity assay at cell level (western blot of p-AMPKα and p-ACC in MEFs); assay type: cell-based, mouse; conditions: MEF cells, compound 10 nM, 2 h; multiple of the ratio relative to positive control AICAR (3 mM); band brightness by Image J
Experimental: The ability of compounds to activate AMPK in mouse embryonic fibroblasts (MEFs) was determined, which could be specifically carried out by detecting the phosphorylation level (p-AMPKα) of threonine at the 172nd position of AMPK and the phosphorylation level (p-ACC) of serine at the 79th position of the susbtrate ACC1/ACC2 of AMPK (FIG. 1 and Table I) by western blot.
The specific method was as follows: • (1) MEFs with loxP insertion sequences or of wild-type were plated in a 6-well plate and cultured in DMEM containing 10% serum. If a gene needed to be knocked out at this time, when the density of the corresponding MEFs with loxP insertion sequences reached about 30%, an adenovirus capable of expressing cre should be added to the culture well followed by further culture for more than 24 h; • (2) When the cell density was close to 90%, the cells were provided with fresh DMEM, at the same time, a compound (final concentration 10 nM) was added to the cells, followed by culture for 2 h, with an equal volume of DMSO as the negative control, and the cells treated with the addition of AICAR (3 mM) as the positive control; • (3) After sucking up the culture solution, the cells were lysed with 200 μL of a cell lysate (its formulation was given below), then the cells were scraped from the culture dish, ultrasonicated, and subjected to low temperature centrifugation at 20000 g for 10 min; • (4) The supernatant and an equal volume of 2*SDS solution (its formulation was given below) were mixed, and subjected to SDS-PAGE in a concentration of 8%, then the protein was transferred to PVDF membrane; each PVDF membrane was blocked with 25 mL of skim milk for 1 h, and then rinsed with TBST buffer (its formulation was given below) 3 times for 10 min each time; • (5) AMPKα subunit primary antibody (Cell Signaling Technology, #2532), primary antibody of phosphothreonine at the 172nd position of AMPK (Cell Signaling Technology, #2535), ACC primary antibody (Cell Signaling Technology, #3662), or primary antibody of phosphoserine at the 79th position of ACC (Cell Signaling Technology, #3661) was diluted in a ratio of 1:1000 with a primary antibody dilution (its formulation was given below), reacted with the PVDF membrane at room temperature for 12 h, and then rinsed 3 times with TBST buffer; • (6) A 1:1000 dilution of HRP-conjugated goat anti-rabbit secondary antibody (Jackson ImmunoResearch, 111-035-003) was added, reacted at room temperature for 1 h, and then rinsed 3 times with TBST buffer; • (7) The PVDF membrane was dried, reacted in an ECL mixture (WesternBright ECL HRP substrate, Advansta) and subjected to exposure with medical X-ray, developed, finally rinsed, dried, and then scanned to obtain data related to AMPK activation.
The formulations of reagents used were: • Cell lysate: 20 mM Tris-base, pH 7.5, 150 mM NaCl, 1 mM EDTA, 1 mM EGTA, 2.5 mM Sodium pyrophosphate, 1 mM β-glycerolphosphate, 1% Triton X-100 (v/v); • 2*SDS solution: 20% Glycerol (v/v), 4% SDS (m/v), 10% β-mecaptoethanol (v/v), 0.01% Bromophenol blue (m/v); • TBST buffer: 4.84% Tris-base (m/v), 8% NaCl (m/v), 0.1% Tween-20 (v/v); • Primary antibody dilution: TBST buffer containing 5% BSA (v/v).

SMILES | Degree of AMPK activation, p-ACC/ACC | Degree of AMPK activation, p-AMPKα/AMPK
Cc1n(CCCCCCCCCCCC(F)(F)C(F)(F)C(F)(F)F)cc[n+]1Cc1c(F)cccc1Cl.[Cl-] [IB-5] | 0.70 | 1.85
FC(F)(F)C(F)(F)C(F)(F)CCCCCCCCCCCn1cc[n+](Cc2c(Cl)cccc2Cl)c1.[Cl-] [IB-1] | 0.71 | 0.99
Cl.FC(F)(F)C(F)(F)C(F)(F)C(F)(F)C(F)(F)C(F)(F)CCCCCCCCCCCn1cc[n+](Cc2c(Cl)cccc2Cl)c1C1CC1 [IB-56] | 0.99 | 0.85
CC(C)c1n(CCCCCCCCCCCC(F)(F)C(F)(F)C(F)(F)C(F)(F)F)cc[n+]1Cc1c(F)cccc1Cl.[Cl-] [IB-25] | 1.10 | 0.58
Cc1n(CCCCCCCCCCCC(F)(F)C(F)(F)C(F)(F)C(F)(F)C(F)(F)F)cc[n+]1Cc1c(Cl)cccc1Cl [IB-59] | 1.04 | 0.98
Cl.Fc1cccc(Cl)c1C[n+]1ccn(CCCCCCCCCCCC(F)(F)C(F)(F)C(F)(F)C(F)(F)F)c1 [IB-14] | 0.50 | 1.57
CC(C)c1n(CCCCCCCCCCCC(F)(F)C(F)(F)C(F)(F)F)cc[n+]1Cc1c(F)cccc1Cl.[Cl-] [IB-8] | 0.90 | 1.23
Br.COc1ccc(F)cc1C[n+]1ccn(CCCCCCCCCCCC(F)(F)C(F)(F)C(F)(F)C(F)(F)C(F)(F)C(F)(F)F)c1C(C)C [IB-55] | 1.98 | 0.87
Br.Cc1n(CCCCCCCCCCCCCCCCF)cc[n+]1Cc1c(Cl)cccc1Cl [IA-2] | 0.73 | 1.00
Cc1n(CCCCCCCCCCCC(F)(F)C(F)(F)C(F)(F)C(F)(F)F)cc[n+]1Cc1c(F)cccc1Cl.[I-] [IB-22] | 1.08 | 0.44
COc1ccc(F)cc1C[n+]1ccn(CCCCCCCCCCCC(F)(F)C(F)(F)C(F)(F)F)c1C(C)C.[Br-] [IB-9] | 0.27 | 1.07
COc1ccc(F)cc1C[n+]1ccn(CCCCCCCCCCCC(F)(F)C(F)(F)C(F)(F)C(F)(F)F)c1C1CC1.[Br-] [IB-29] | 0.81 | 0.76
CC(C)c1n(CCCCCCCCCCCC(F)(F)C(F)(F)C(F)(F)F)cc[n+]1Cc1c(Cl)cccc1Cl.[Cl-] [IB-7] | 0.87 | 1.93
Fc1cccc(Cl)c1C[n+]1ccn(CCCCCCCCCCCC(F)(F)C(F)(F)C(F)(F)F)c1C1CC1.[Cl-] [IB-11] | 0.41 | 1.11
Br.COc1ccc(F)cc1C[n+]1ccn(CCCCCCCCCCCC(F)(F)C(F)(F)C(F)(F)F)c1C1CC1 [IB-12] | 0.50 | 1.18
CC(C)c1n(CCCCCCCCCCCC(F)(F)C(F)(F)C(F)(F)C(F)(F)C(F)(F)F)cc[n+]1Cc1c(F)cccc1Cl.[Cl-] [IB-42] | 1.50 | 1.03
Cc1n(CCCCCCCCCCCC(F)(F)C(F)(F)C(F)(F)C(F)(F)C(F)(F)F)cc[n+]1Cc1c(Cl)cccc1Cl.[Br-] [IB-35] | 1.15 | 1.02

SMILES | Degree of AMPK activation, p-ACC/ACC | Degree of AMPK activation, p-AMPKα/AMPK
COc1ccc(F)cc1C[n+]1ccn(CCCCCCCCCCCC(F)(F)C(F)(F)C(F)(F)C(F)(F)F)c1C.[Br-] [IB-20] | 0.82 | 1.22
COc1ccc(F)cc1C[n+]1ccn(CCCCCCCCCCCC(F)(F)C(F)(F)C(F)(F)C(F)(F)C(F)(F)F)c1C1CC1.[Br-] [IB-46] | 1.73 | 0.57
Cl.FC(F)(F)C(F)(F)C(F)(F)CCCCCCCCCCCn1cc[n+](Cc2c(Cl)cccc2Cl)c1C1CC1 [IB-10] | 0.35 | 1.94
Cc1n(CCCCCCCCCCCC(F)(F)C(F)(F)C(F)(F)C(F)(F)F)cc[n+]1Cc1c(F)cccc1Cl.[Cl-] [IB-17] | 0.72 | 1.42
Cc1n(CCCCCCCCCCCC(F)(F)C(F)(F)C(F)(F)C(F)(F)F)cc[n+]1Cc1c(Cl)cccc1Cl.[I-] [IB-21] | 1.73 | 0.35
COc1ccc(F)cc1C[n+]1ccn(CCCCCCCCCCCC(F)(F)C(F)(F)C(F)(F)C(F)(F)C(F)(F)C(F)(F)F)c1C.[Br-] [IB-52] | 0.98 | 0.83
Cc1n(CCCCCCCCCCCCCCCCF)cc[n+]1Cc1c(Cl)cccc1Cl.[I-] [IA-3] | 0.83 | 0.69
Cl.FC(F)(F)C(F)(F)C(F)(F)C(F)(F)CCCCCCCCCCCn1cc[n+](Cc2c(Cl)cccc2Cl)c1 [IB-13] | 0.57 | 1.31
COc1ccc(F)cc1C[n+]1ccn(CCCCCCCCCCCC(F)(F)C(F)(F)C(F)(F)C(F)(F)C(F)(F)F)c1C.[I-] [IB-40] | 1.65 | 1.06
Fc1cccc(Cl)c1C[n+]1ccn(CCCCCCCCCCCC(F)(F)C(F)(F)C(F)(F)F)c1.[Cl-] [IB-2] | 0.82 | 1.45
COc1ccc(F)cc1C[n+]1ccn(CCCCCCCCCCCC(F)(F)C(F)(F)C(F)(F)C(F)(F)F)c1C.[I-] [IB-23] | 1.50 | 0.49
FC(F)(F)C(F)(F)C(F)(F)C(F)(F)CCCCCCCCCCCn1cc[n+](Cc2c(Cl)cccc2Cl)c1C1CC1.[Cl-] [IB-27] | 1.06 | 0.95
Cc1n(CCCCCCCCCCCC(F)(F)C(F)(F)C(F)(F)C(F)(F)C(F)(F)F)cc[n+]1Cc1c(F)cccc1Cl.[I-] [IB-39] | 1.51 | 1.50
Cc1n(CCCCCCCCCCCC(F)(F)C(F)(F)C(F)(F)C(F)(F)F)cc[n+]1Cc1c(Cl)cccc1Cl.[Br-] [IB-18] | 0.65 | 1.45
Fc1cccc(Cl)c1C[n+]1ccn(CCCCCCCCCCCC(F)(F)C(F)(F)C(F)(F)C(F)(F)C(F)(F)F)c1C1CC1.[Cl-] [IB-45] | 2.22 | 0.54
COc1ccc(F)cc1C[n+]1ccn(CCCCCCCCCCCC(F)(F)C(F)(F)C(F)(F)C(F)(F)F)c1C(C)C.[Br-] [IB-26] | 1.04 | 0.94
CC(C)c1n(CCCCCCCCCCCC(F)(F)C(F)(F)C(F)(F)C(F)(F)C(F)(F)C(F)(F)F)cc[n+]1Cc1c(Cl)cccc1Cl.Cl [IB-53] | 1.23 | 0.76
